≈ marks a conversion by molar mass, not a printed value.
Legend:
[1] = tested on: RPMI8226 (multiple myeloma); assay: MTT growth inhibition of multiple myeloma cells, 72 h; type: cell-based, human
Method: Multiple myeloma and lymphoma cell lines: RPMI8226 (multiple myeloma), purchased from Fuxiang Bio-tech Co. Ltd., Shanghai, China.
(§1) Obtaining 6000 well-growing leukemia cells and inoculating them into wells of a 96-well cell culture plate. The culture medium is the 1640 cell culture medium containing 10% fetal bovine serum. After adding the homoharringtonine derivatives of different concentrations and mixing uniformly, placing the plate in a carbon dioxide cell incubator (5% CO2) at 37° C. and incubated for 72 hours. Then the viable cell concentration is determined by the MTT method. In this experiment, the cell viability in control group (not treated with any compound) is set as 100%. On such basis, the cell viability (%) after treatment and the 50% inhibiting concentration of the compound for the leukemia cell growth at 72 hours (IC50 value of 72 hours) are calculated.

[2] = tested on: CNE (nasopharyngeal carcinoma cell); assay: MTT growth inhibition of human solid tumor cells, 72 h; type: cell-based; conditions: MTT
Method: (§2) Human solid tumor cell lines: Hep-2 (laryngeal carcinoma), A549 (human lung cancer), CaES-17 (esophageal cancer cell), PC-3 (prostate cancer), CNE (nasopharyngeal carcinoma cell), and SK-OV-3 (ovarian cancer cell), all of which are purchased from China Center For Type Culture Collection; RKO (human colon adenocarcinoma cell), MGC 803 (human gastric cancer cell), MG63 (osteosarcoma) and U87 MG (malignant glioma cell), all of which are purchased from Fuxiang Bio-tech Co. Ltd., Shanghai, China; PANC-1 (pancreatic cancer), Huh7 (human liver cancer cell), Becap37 (human breast cancer cell), and Hela (human cervical cancer cell), all of which are donated by Cancer Research Institute of Zhejiang University, China.
(§3) Obtaining 4000 well-growing human solid tumor cells and inoculating them into wells of a 96-well cell culture plate. The culture medium is DMEM High Glucose cell culture medium containing 10% fetal bovine serum. The plate is placed in a carbon dioxide cell incubator (5% CO2) at 37° C. and incubated for 24 hours. After adding the homoharringtonine derivatives of different concentration and mixing uniformly, the plate is placed in a carbon dioxide cell incubator (5% CO2) at 37° C. and incubated for 72 hours. Then the viable cell concentration is determined by the MTT method and the cell viability (%) after drug treatment is calculated. In this experiment, the cell viability of control group (not treated with any compound) is set as 100%.

[3] = tested on: CaES-17 (esophageal cancer cell); assay: as above; type: cell-based
Method: as §2, §3

[4] = tested on: A549 (human lung cancer); assay: as above; type: cell-based
Method: as §2, §3

[5] = tested on: Hela (human cervical cancer cell); assay: as above; type: cell-based; conditions: MTT
Method: as §2, §3

[6] = tested on: RKO (human colon adenocarcinoma cell); assay: as above; type: cell-based; conditions: MTT
Method: as §2, §3

[7] = tested on: MG63 (osteosarcoma); assay: as above; type: cell-based
Method: as §2, §3

[8] = tested on: PC-3 (prostate cancer); assay: as above; type: cell-based; conditions: MTT
Method: as §2, §3

[9] = tested on: U87 MG (malignant glioma cell); assay: as above; type: cell-based
Method: as §2, §3

[10] = tested on: PANC-1 (pancreatic cancer); assay: as above; type: cell-based
Method: as §2, §3

[11] = tested on: Becap37 (human breast cancer cell); assay: as above; type: cell-based
Method: as §2, §3

[12] = tested on: Hep-2 (laryngeal carcinoma); assay: as above; type: cell-based
Method: as §2, §3

[13] = tested on: MGC 803 (human gastric cancer cell); assay: as above; type: cell-based
Method: as §2, §3

[14] = tested on: SK-OV-3 (ovarian cancer cell); assay: as above; type: cell-based
Method: as §2, §3

[15] = tested on: Huh7 (human liver cancer cell); assay: as above; type: cell-based
Method: as §2, §3

[16] = tested on: Jurkat (acute lymphoblastic leukemia, ALL); assay: MTT growth inhibition of leukemia cells, 72 h; type: cell-based, human
Excerpt: (§4) Leukemia cell lines: leukemia cell lines: K562/adr (drug-resistant, chronic myeloid leukemia, CML), NB4 (acute promyelocytic leukemia, AML), Kasumi-1 (acute myeloid leukemia M2 type, AML-M2), Jurkat (acute lymphoblastic leukemia, ALL), all of which are donated by Cancer Research Institute of Zhejiang University, China; and H9 (acute lymphoblastic leukemia, ALL), which is purchased from China Center for Type Culture Collection (CCTCC).
(§5) Reagents: The standard sample of homoharringtonine (HHT) is purchased from Taihua Natural Plant Pharmaceutical Co., Ltd., Shaanxi, China, the homoharringtonine derivatives of the present invention.
as §1

[17] = tested on: Kasumi-1 (acute myeloid leukemia M2 type, AML-M2); assay: MTT growth inhibition of leukemia cells, 72 h; type: cell-based, human
Excerpt: as §4, §5, §1

[18] = tested on: H9 (acute lymphoblastic leukemia, ALL); assay: MTT growth inhibition of leukemia cells, 72 h; type: cell-based, human; conditions: MTT
Excerpt: as §4, §5, §1

[19] = tested on: K562/adr (drug-resistant, chronic myeloid leukemia, CML); assay: MTT growth inhibition of leukemia cells, 72 h; type: cell-based, human; conditions: MTT
Excerpt: as §4, §5, §1

[20] = tested on: NB4 (acute promyelocytic leukemia, AML); assay: MTT growth inhibition of leukemia cells, 72 h; type: cell-based, human; conditions: MTT
Excerpt: as §4, §5, §1

COC(=O)C[C@@](CCCC(C)(C)OC(=O)c1scnc1C)(OC(=O)c1scnc1C)C(=O)O[C@@H]1C(OC)=C[C@]23CCCN2CCc2cc4c(cc2[C@H]13)OCO4 [BS-HH-0722]
IC50 RPMI8226 ([1]; MTT): 0.29 µg/mL (≈ 0.364 µM) | IC90 RPMI8226 ([1]; MTT): 1.82 µg/mL (≈ 2.29 µM) | IC50 CNE [2]: 0.77 µg/mL (≈ 0.967 µM) | IC90 CNE [2]: >16 µg/mL | IC50 CaES-17 [3]: 1.24 µg/mL (≈ 1.56 µM) | IC90 CaES-17 [3]: 16 µg/mL (≈ 20.1 µM) | IC50 A549 [4]: 0.89 µg/mL (≈ 1.12 µM) | IC90 A549 [4]: >16 µg/mL | IC50 Hela [5]: 0.87 µg/mL (≈ 1.09 µM) | IC90 Hela [5]: >16 µg/mL | IC50 RKO [6]: 0.22 µg/mL (≈ 0.276 µM) | IC90 RKO [6]: 0.87 µg/mL (≈ 1.09 µM) | IC50 MG 63 ([7]; MTT): 0.21 µg/mL (≈ 0.264 µM) | IC90 MG 63 ([7]; MTT): 9.43 µg/mL (≈ 11.8 µM) | IC50 PC-3 [8]: 0.82 µg/mL (≈ 1.03 µM) | IC90 PC-3 [8]: >16 µg/mL | IC50 U87 MG [9]: 0.67 µg/mL (≈ 0.842 µM) | IC90 U87 MG [9]: 3.42 µg/mL (≈ 4.3 µM) | IC50 PANC-1 ([10]; MTT): 0.83 µg/mL (≈ 1.04 µM) | IC90 PANC-1 ([10]; MTT): >16 µg/mL | IC50 Becap37 [11]: 0.47 µg/mL (≈ 0.591 µM) | IC90 Becap37 [11]: 16 µg/mL (≈ 20.1 µM) | IC50 Hep-2 [12]: 0.48 µg/mL (≈ 0.603 µM) | IC90 Hep-2 [12]: >16 µg/mL | IC50 MGC 803 [13]: 0.5 µg/mL (≈ 0.628 µM) | IC90 MGC 803 [13]: 12 µg/mL (≈ 15.1 µM) | IC50 SK-OV-3 ([14]; MTT): 1.94 µg/mL (≈ 2.44 µM) | IC90 SK-OV-3 ([14]; MTT): >16 µg/mL | IC50 Huh7 [15]: 0.66 µg/mL (≈ 0.829 µM) | IC90 Huh7 [15]: 7.6 µg/mL (≈ 9.55 µM) | IC50 Jurkat [16]: 0.3 µg/mL (≈ 0.377 µM) | IC90 Jurkat [16]: ≥ 16 µg/mL | IC50 Kasumi-1 ([17]; MTT): 0.14 µg/mL (≈ 0.176 µM) | IC90 Kasumi-1 ([17]; MTT): 0.47 µg/mL (≈ 0.591 µM) | IC50 H9 [18]: 0.47 µg/mL (≈ 0.591 µM) | IC90 H9 [18]: 1.24 µg/mL (≈ 1.56 µM) | IC50 K562/adr [19]: 0.9 µg/mL (≈ 1.13 µM) | IC90 K562/adr [19]: 3.72 µg/mL (≈ 4.67 µM) | IC50 NB4 [20]: 0.2 µg/mL (≈ 0.251 µM) | IC90 NB4 [20]: 0.49 µg/mL (≈ 0.616 µM)

COC(=O)C[C@@](CCCC(C)(C)OC(=O)c1cccs1)(OC(=O)c1cccs1)C(=O)O[C@@H]1C(OC)=C[C@]23CCCN2CCc2cc4c(cc2[C@H]13)OCO4 [BS-HH-0572]
IC50 ([1]; Homo sapiens, RPMI-8226, MTT): 0.155 µg/mL (≈ 0.202 µM) | IC90 ([1]; Homo sapiens, RPMI-8226, MTT): 1.13 µg/mL (≈ 1.48 µM) | IC50 ([2]; Homo sapiens): 0.35 µg/mL (≈ 0.457 µM) | IC90 ([2]; Homo sapiens): 14.3 µg/mL (≈ 18.6 µM) | IC50 ([3]; Homo sapiens, CaEs17): 0.74 µg/mL (≈ 0.966 µM) | IC90 ([3]; Homo sapiens, CaEs17): 16 µg/mL (≈ 20.9 µM) | IC50 ([4]; Homo sapiens, A549): 0.48 µg/mL (≈ 0.627 µM) | IC90 ([4]; Homo sapiens, A549): > 16 µg/mL | IC50 ([5]; Homo sapiens, HeLa): 0.45 µg/mL (≈ 0.588 µM) | IC90 ([5]; Homo sapiens, HeLa): 11.5 µg/mL (≈ 15.1 µM) | IC50 ([6]; Homo sapiens): 0.12 µg/mL (≈ 0.157 µM) | IC90 ([6]; Homo sapiens): 0.56 µg/mL (≈ 0.731 µM) | IC50 ([7]; Homo sapiens, MG-63, MTT): 0.2 µg/mL (≈ 0.261 µM) | IC90 ([7]; Homo sapiens, MG-63, MTT): 4.75 µg/mL (≈ 6.2 µM) | IC50 ([8]; Homo sapiens): 1.84 µg/mL (≈ 2.4 µM) | IC90 ([8]; Homo sapiens): > 16 µg/mL | IC50 ([9]; Homo sapiens, U-87 MG): 0.23 µg/mL (≈ 0.3 µM) | IC90 ([9]; Homo sapiens, U-87 MG): 0.99 µg/mL (≈ 1.29 µM) | IC50 ([10]; Homo sapiens, PANC-1, MTT): 0.43 µg/mL (≈ 0.561 µM) | IC90 ([10]; Homo sapiens, PANC-1, MTT): 12.6 µg/mL (≈ 16.4 µM) | IC50 ([11]; Homo sapiens): 0.2 µg/mL (≈ 0.261 µM) | IC90 ([11]; Homo sapiens): 9.75 µg/mL (≈ 12.7 µM) | IC50 ([12]; Homo sapiens, HEp-2): 0.23 µg/mL (≈ 0.3 µM) | IC90 ([12]; Homo sapiens, HEp-2): > 16 µg/mL | IC50 ([13]; Homo sapiens, MGC-803): 0.24 µg/mL (≈ 0.313 µM) | IC90 ([13]; Homo sapiens, MGC-803): 1.62 µg/mL (≈ 2.12 µM) | IC50 ([14]; Homo sapiens, SK-OV-3, MTT): 0.98 µg/mL (≈ 1.28 µM) | IC90 ([14]; Homo sapiens, SK-OV-3, MTT): > 16 µg/mL | IC50 ([15]; Homo sapiens, Huh-7): 0.17 µg/mL (≈ 0.222 µM) | IC90 ([15]; Homo sapiens, Huh-7): 1.7 µg/mL (≈ 2.22 µM) | IC50 ([16]; Homo sapiens, Jurkat): 0.11 µg/mL (≈ 0.144 µM) | IC90 ([16]; Homo sapiens, Jurkat): 7.5 µg/mL (≈ 9.79 µM) | IC50 ([17]; Homo sapiens, Kasumi 1, MTT): 0.065 µg/mL (≈ 0.0849 µM) | IC90 ([17]; Homo sapiens, Kasumi 1, MTT): 0.4 µg/mL (≈ 0.522 µM) | IC50 ([18]; Homo sapiens): 0.21 µg/mL (≈ 0.274 µM) | IC90 ([18]; Homo sapiens): 0.48 µg/mL (≈ 0.627 µM) | IC50 ([19]; Homo sapiens, K562/Adr): 0.32 µg/mL (≈ 0.418 µM) | IC90 ([19]; Homo sapiens, K562/Adr): 16 µg/mL (≈ 20.9 µM) | IC50 ([20]; Homo sapiens): 0.12 µg/mL (≈ 0.157 µM) | IC90 ([20]; Homo sapiens): 0.4 µg/mL (≈ 0.522 µM)

— patent US9428519B2, “Acylated derivative of homoharringtonine, preparation method therefor, and application thereof” (HANGZHOU BENSHENG PHARMACEUTICAL CO., LTD., priority 2011, dated 2016)
